The source of these data is patent US12329758B2, “Methods for the treatment of psoriatic arthritis” (Alfasigma S.p.A., priority 2018, dated 2025).

Test [1] relates to moderately to severely active PsA. The test is described as follows: Phase 2 clinical study NCT03101670, ACR20/50/70 response. The format is in vivo, human. Conditions: for ACR20 / ACR50 / ACR70: 200 mg q.d. The text has this:
For the purpose of the present invention, the terms “ACR20”, “ACR50” and “ACR70” as used herein are scores which indicate how much a patient's symptoms of peripheral arthritis have improved according to criteria set out by the American College of Rheumatology (ACR). The ACR score represents a percentage. An ACR20 score means that a person's arthritis symptoms have improved by 20%, an ACR50 score means it has improved by 50%, and an ACR70 score means it has improved by 70%. Specifically, to qualify for an ACR20 score, a person must have at least 20% fewer tender joints (at least 20% improvement from baseline in tender joint counts, TJC68) and at least 20% fewer swollen joints (at least 20% improvement from baseline in swollen joint counts, SJC66). In addition the patient must show a 20% improvement in at least three of the following five areas: the person's overall (global) assessment of his or her own disease activity (on a 0-100 mm visual analog scale (VAS)), the physician's global assessment of the person's disease activity (on a 0-100 mm VAS), the person's assessment of his or her own PsA pain intensity (on a 0-100 mm VAS), the person's assessment of his or her own physical functioning as measured by HAQ-DI, and the results of a C-reactive protein (CRP) blood test (in mg/dL or mg/L). ACR50 and ACR70 scores use the same criteria but require 50% and 70% improvement, respectively.
(§1) This is a multicenter, Phase 2, double-blind, placebo-controlled study in subjects with moderately to severely active PsA who have an inadequate response or are intolerant to conventional disease-modifying therapy. […] Randomization to treatment groups are stratified by current cDMARD use (yes or no) and prior anti-TNF pharmaceutical use (yes or no).
Efficacy assessments to estimate signs and symptoms of PsA and peripheral arthritis, psoriasis, enthesitis, dactylitis, spondylitis, and physical function are carried out at Baseline (Day 1) and at Weeks 1, 2, 4, 8, 12, 16, or at the early discontinuation visit (EDV) if applicable, unless otherwise noted. The individual components of the ACR response criteria are obtained at screening and throughout the study.
The patient's assessment of pain is performed using a 0-100 mm VAS ranging from “no pain” to “unbearable pain” after the question “Please indicate with a vertical mark (|) through the horizontal line the most pain you had from your psoriatic arthritis today”. The length of the line from 0 to the patient's mark is recorded. This assessment should be completed before the joint examination. This pain score is also used to derive the ACR20/50/70.
The signs and symptoms of peripheral arthritis are measured using ACR20/50/70. The ACR response is a measurement of improvement in multiple disease assessment criteria.
A positive ACR20 response is defined as at least 20% improvement from baseline in both swollen (SJC66) and tender (TJC68) joint counts, and at least 20% improvement in 3 or more of the following 5 criteria: • Patient's Global Assessment of Disease Activity (0-100 mm VAS) • Physician's Global Assessment of Disease Activity (0-100 mm VAS) • Patient's Global Assessment of PsA pain intensity (0-100 mm VAS) • Patient's assessment of physical function as measured by HAQ-DI • CRP in mg/dL or mg/L
A positive ACR50 and ACR70 response is derived from the definition of the ACR20, but requiring at least 50% and 70% improvement, respectively.

The test system of test [2] is psoriasis in PsA subjects with ≥3% BSA at baseline. In words: Phase 2 clinical study NCT03101670, psoriasis (PASI). Conditions: 200 mg q.d. In kind it is in vivo, human.
Excerpt: As used herein, the term ‘PASI’ refers to the Psoriasis Area and Severity Index score and is an index used to express the severity of psoriasis. It combines the severity (erythema, induration and desquamation) and percentage of affected area. Further details on the determination of PASI is provided in example 1. The PASI score represents the change from baseline. ‘PASI50’ refers to the portion of patients who achieved 50% improvement in the PASI score upon the tested treatment. ‘PASI75’ refers to the portion of patients who achieved 75% improvement in the PASI score upon the tested treatment. ‘PASI90’ refers to the portion of patients who achieved 90% improvement in the PASI score upon the tested treatment.
as §1
The PASI score is used to measure the severity and extent of psoriasis. Representative area of psoriasis is selected for each body region (head, arms, trunk and legs). The intensity of erythema, induration and desquamation of the psoriasis is assessed as none (0), mild (1), moderate (2), severe (3) or very severe (4).
A numerical score, ranging from 0 to 100%, will be used to measure the proportion of the subject's total BSA involved with psoriasis, as assessed by the investigator.
Four sites of affection, the head (h), upper limb (u), trunk (t) and lower limbs (l), are separately scored by using 3 parameters, erythema (E), induration (I) and desquamation (D), each of which is graded on a severity scale of 0 to 4 (0=none, 1=mild, 2=moderate, 3=severe and 4=very severe) (Section 1.4.6). The area-wise percentage involvement of the involved sites is calculated as: 1=less than 10% area; 2=10-29%; 3=30-49%; 4=50-69%; 5=70-89%; and 6=more than 90%. The final formula for PASI score is: PASI=0.1×(Eh+Ih+Dh)×Ah+0.2×(Eu+Iu+Du)×Au+0.3×(Et+It+Dt)×At+0.4×(El+Il+Dl)×Al
The total PASI score ranges between 0 (no disease) and 72 (maximal disease), but is considered unreliable when BSA <3%. Therefore, the PASI is only analysed in the subpopulation of subjects with psoriasis involving ≥3% BSA at baseline.
The following PASI parameters can be derived: • PASI change from baseline • PASI 50% improvement (PASI50) • PASI 75% improvement (PASI75) • PASI 90% improvement (PASI90) • PASI 100% improvement or complete resolution of all disease (PASI100)

Where [3] appears, read: W12, subjects with ≥3% BSA at baseline.
The mark [4] stands for this setting: W16, subjects with ≥3% BSA at baseline.

For the compound `O=C(Nc1nc2cccc(-c3ccc(CN4CCS(=O)(=O)CC4)cc3)n2n1)C1CC1` [compound I, cyclopropanecarboxylic acid {5-[4-(1,1-dioxo-thiomorpholin-4-ylmethyl)-phenyl]-[1,2,4]triazolo[1,5-a]pyridin-2yl}-amide], the ACR20 in test [1] (Week 1) was found to be 26.2%; in test [1] (Week 2) it was 33.8%; in test [1] (Week 4), 61.5%; in test [1] (Week 8) it was 67.7%; in test [1] (Week 12) it was 83.1%. In addition, the ACR50 in test [1] (Week 1) is 6.2%; in test [1] (Week 2), 10.8%; in test [1] (Week 4), 20.0%; in test [1] (Week 8) it was 32.3%; in test [1] (Week 12) it was 41.5%; in test [1] (Week 16), 47.7%. For the same compound, the ACR70 in test [1] (Week 1) turned out to be 1.5%; in test [1] (Week 2), 3.1%; in test [1] (Week 4) it was 7.7%; in test [1] (Week 8), 12.3%; in test [1] (Week 12), 10.8%; in test [1] (Week 16), 23.1%. Also, in test [1] (as from week 1), the “ACR20 and ACR50 difference from placebo” value was “statistically significant difference from placebo”. In addition, the “difference in ACR20, ACR50 and ACR70 score versus placebo” value in test [1] (week 16) is “statistically significant difference”. For the same compound, the PASI75 in test [2] (setting [3]) was 33.3%; in test [2] (setting [4]), 45.2%. Further, the PASI mean cfb in test [2] (setting [3]) is listed as −5.5; in test [2] (setting [4]), −6.3.
